{"source": "paper PMC4166403", "about": "(Cell, 2014)", "molecules": {"B1": {"name": "Listeria monocytogenes pyruvate carboxylase (LmPC) (enzyme)", "chain": "MNRIKKVLVANRGEIAIRVMRACTELKIKTVAIYSQEDTGSFHRYKSDEAYLVGAGKKPIDAYLDIENIIEIAKESGADAIHPGYGFLSENIEFARRCEQEGIIFVGPKSKHLDMFGDKIKAKEQALLADIPVIPGSNGPVAGIKEVEEFGEKNGYPLMIKASLGGGGRGMRVVESKEHVKESFERASSEAKAAFGNDEVYVEKCVMNPKHIEVQILGDTHGNIVHLFERDCSIQRRHQKVVEVAPCNAITSELRNRICDAAVKLMKNVDYINAGTVEFLVEGDDFYFIEVNPRVQVEHTITEMITGIDIVQSQLFIADGYALHDQLVAIPKQEDIHIHGSAIQSRITTEDPLNNFMPDTGRVDTYRSTGGFGVRLDAGNGFQGTVVTPFYDSLLVKLCTWGMTFEQATRKMRRNLIEFRIRGVKTNIPFLLNVVRHPDFASGNYNTSFIDTTPELFKFPHIRDRGTKTLRYIGNVTVNGFPGIKHRDKPVYAEPRLPKIPYGSQISPGTKQILDAKGPEGVVDWVKKQEEVLLTDTTLRDAHQSLLATRVRSKDIFQVADAMAHLLPNMFSFEMWGGATFDVAYRFLNEDPWVRLETLRKQIPNVMFQMLLRGANAVGYKNYPDNVIREFVKQSAQSGVDVFRVFDSLNWIKGMEVSIDAVREAGKVVEAAICYTGDIDDDTRTKYTIDYYKDMAKELVAQGTHILGIKDMAGLLKPQAAYRLIGELKDTVDVPIHLHTHDTSGNGIYTYAAAVSAGVDIVDVASSAMSGATSQPSMTGLYYGLVNGNRQTNLDAQNSQIINHYWEDVRHYYKDFDNALNSPQTEVYIHEMPGGQYTNLQQQAIAVGLGDRWDEVKEMYTVVNQMFGDIVKVTPSSKVVGDLALFMVQNELSEEDVYEKGDTIDFPDSVIEFFMGEIGQPYGGFPEKLQKLVLKGRTPLTDRPGALMEPVNFVDVKAELKEKMGYEPTEKDVISYILYPKVFLDYQDMINKYGDVTVLDTPTFYKGMRLGETIEVELEKGKILLIKLNSIGEPIADGTRVIYFELNGQPREINIQDMNVQSTVIARRKIDTTNPEHVGATMTGSVIQVVVKKGDSVKKGDPLLITEAMKMETTIQAPFDGEVSSIYVSDGDTIESGDLLIEVNRI", "modifications": "biotin group on the BCCP domain (position not given)"}}, "key": {"[1]": {"biological_target": "T1, pyruvate carboxylase (LmPC) (Listeria monocytogenes, UniProt Q8Y846)", "T1 sequence (Q8Y846 1-1146)": "B1 chain", "assay": "crystal structure", "format": "binding"}, "[2]": {"biological_target": "pyruvate carboxylase (LmPC) (Listeria monocytogenes, UniProt Q8Y846, Y722F)", "assay": "binding titration and enzyme inhibition of purified mutant"}, "Lmo1466": {"biological_target": "T2, Lmo1466 (Listeria monocytogenes, UniProt Q8Y746)", "T2 sequence (Q8Y746 1-718)": "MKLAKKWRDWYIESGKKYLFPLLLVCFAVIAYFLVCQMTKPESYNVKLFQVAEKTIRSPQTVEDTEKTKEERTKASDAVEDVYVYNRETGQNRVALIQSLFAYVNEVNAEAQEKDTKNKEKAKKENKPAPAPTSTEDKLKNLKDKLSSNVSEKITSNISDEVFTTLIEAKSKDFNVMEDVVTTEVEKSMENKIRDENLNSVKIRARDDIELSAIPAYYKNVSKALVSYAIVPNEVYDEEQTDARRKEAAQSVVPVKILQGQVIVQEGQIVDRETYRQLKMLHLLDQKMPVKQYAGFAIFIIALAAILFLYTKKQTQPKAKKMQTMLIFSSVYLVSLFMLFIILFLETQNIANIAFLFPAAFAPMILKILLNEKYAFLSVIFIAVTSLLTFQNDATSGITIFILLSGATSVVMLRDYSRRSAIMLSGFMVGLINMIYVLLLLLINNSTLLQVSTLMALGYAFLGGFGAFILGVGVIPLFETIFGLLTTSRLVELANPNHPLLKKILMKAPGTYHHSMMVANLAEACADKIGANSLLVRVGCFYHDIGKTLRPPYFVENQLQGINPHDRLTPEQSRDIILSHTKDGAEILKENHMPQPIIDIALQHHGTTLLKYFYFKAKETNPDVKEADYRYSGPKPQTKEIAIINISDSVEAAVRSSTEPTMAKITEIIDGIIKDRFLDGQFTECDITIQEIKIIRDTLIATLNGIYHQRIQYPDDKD", "assay": "DRaCALA with […]-c-di-AMP in E. coli lysate expressing the protein", "format": "cell-based"}, "PdeA (Lmo0052)": {"biological_target": "T3, PdeA (Lmo0052) (Listeria monocytogenes, UniProt A0A0H3GCG4)", "T3 sequence (A0A0H3GCG4 1-657)": "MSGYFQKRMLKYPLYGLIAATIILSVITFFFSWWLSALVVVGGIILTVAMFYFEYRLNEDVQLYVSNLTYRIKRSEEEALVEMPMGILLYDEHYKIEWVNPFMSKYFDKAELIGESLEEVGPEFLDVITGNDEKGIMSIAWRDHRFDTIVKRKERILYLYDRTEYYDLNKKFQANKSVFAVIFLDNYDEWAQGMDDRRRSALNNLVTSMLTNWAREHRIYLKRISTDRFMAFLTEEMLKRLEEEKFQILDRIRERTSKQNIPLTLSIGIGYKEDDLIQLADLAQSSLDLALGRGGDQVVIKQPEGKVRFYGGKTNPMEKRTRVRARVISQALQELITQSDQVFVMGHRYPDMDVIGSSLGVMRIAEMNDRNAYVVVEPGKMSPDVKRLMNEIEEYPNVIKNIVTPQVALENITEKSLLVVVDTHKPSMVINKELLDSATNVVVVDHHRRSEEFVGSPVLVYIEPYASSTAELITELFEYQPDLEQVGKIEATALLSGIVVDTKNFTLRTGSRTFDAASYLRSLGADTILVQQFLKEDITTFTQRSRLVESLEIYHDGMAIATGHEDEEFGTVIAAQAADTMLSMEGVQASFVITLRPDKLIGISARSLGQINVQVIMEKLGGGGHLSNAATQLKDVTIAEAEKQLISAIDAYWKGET", "assay": "DRaCALA with […]-c-di-AMP, purified recombinant protein", "format": "binding"}, "[3]": {"biological_target": "T1, pyruvate carboxylase (LmPC)", "assay": "PC activity assay with nucleotide analogues", "format": "biochemical"}, "crystal structure": {"biological_target": "the molecule itself", "assay": "crystal structure"}}, "data": [{"molecule": "Nc1ncnc2c1ncn2[C@@H]1O[C@@H]2CO[P@@](=O)(O)O[C@H]3[C@@H](O)[C@H](n4cnc5c(N)ncnc54)O[C@@H]3CO[P@@](=O)(O)O[C@H]2[C@H]1O", "note": "[cdA, c-di-AMP]", "values": [{"measurement": "Kd", "setting": "[1]", "result": "8 ± 0.2", "unit": "µM"}, {"measurement": "binding titration and enzyme inhibition of purified mutant", "setting": "[2]", "result": "binding to c-di-AMP was only observed for Y722F and none of the other amino acid variants"}, {"measurement": "DRaCALA with 32P-c-di-AMP in E. coli lysate expressing the protein", "setting": "Lmo1466", "result": "A significant level of binding was observed for Lmo1466 and NrdR-expressing lysates, consistent with a direct interaction with c-di-AMP"}, {"measurement": "DRaCALA with 32P-c-di-AMP, purified recombinant protein", "setting": "PdeA (Lmo0052)", "result": "as well as PdeA and LmPC exhibited binding in purified form"}]}, {"molecule": "O=c1[nH]cnc2c1ncn2[C@@H]1O[C@@H]2COP(=O)(O)O[C@H]3[C@@H](O)[C@H](n4cnc5c(=O)[nH]cnc54)O[C@@H]3COP(=O)(O)O[C@H]2[C@H]1O", "note": "[c-di-IMP]", "values": [{"measurement": "PC activity assay with nucleotide analogues", "setting": "[3]", "result": "while c-di-IMP did show weak inhibitory activity"}]}, {"molecule": "B1", "values": [{"measurement": "stoichiometry N", "setting": "crystal structure", "result": 4}]}]}
